Target: T1, angiotensin II receptor (Oryctolagus cuniculus, UniProt P34976)
T1 construct: The aorta was cut into 3~4 mm to form ring samples; from tissue; host or cells: isolated aorta rings of New Zealand White rabbits
T1 sequence (P34976 1-359): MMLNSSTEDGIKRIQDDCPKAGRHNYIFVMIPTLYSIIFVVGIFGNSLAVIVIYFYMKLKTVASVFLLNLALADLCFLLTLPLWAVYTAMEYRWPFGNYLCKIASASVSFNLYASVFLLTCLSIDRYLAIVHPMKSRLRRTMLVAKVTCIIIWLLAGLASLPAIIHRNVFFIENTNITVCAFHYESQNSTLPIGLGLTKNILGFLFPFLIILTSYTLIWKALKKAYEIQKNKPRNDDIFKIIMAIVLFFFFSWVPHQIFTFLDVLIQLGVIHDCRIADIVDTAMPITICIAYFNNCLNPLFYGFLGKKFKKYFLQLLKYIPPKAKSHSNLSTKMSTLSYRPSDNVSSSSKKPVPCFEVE
Test: inhibition of angiotensin II induced contraction of isolated rabbit aorta rings
Format: cell-based, New Zealand White rabbit
Conditions: test compound incubated 20 minutes, 37° C., pH 7.4, read-out: IC50 (concentration being required to inhibit angiotensin II induced contraction by 50%)
Protocol: The antagonistic activity of the representative compounds of the invention was evaluated using the methodology describe below.
From New Zealand White rabbits (male or female, 2~2.5 kg), aorta was isolated, and fat and connected tissue were removed therefrom. The aorta was cut into 3~4 mm to form ring samples. The aorta sample was suspended in 20 ml of organ bath (37° C.) containing modified Krebs-Henseleit solution saturated with 95% O2 /5% CO2 (pH 7.4).
The aorta preparation was exposed consecutively to 2 g of tensile strength for 90 minutes intermittently washing the sample with 30 minutes interval and then to 30 mM of KCl to observe contraction response. After washing more than three times, the aorta preparation was again allowed to contract three times for stabilization by adding Angiotensin II ([…]) thereto with 30 minutes interval. The third contraction response to Angiotensin II was considered as control.
10 minutes after the third contraction, the test compound was administered to the aorta preparation, which was incubated for 20 minutes.
Comparing angiotensin II contraction curve obtained from the above inhibition test with that of the control, IC50 (concentration being required to inhibit angiotensin II induced contraction by 50%) was determined for each test compound(Table 1).

IC50 [nM] | Structure (SMILES)
2.17 | CCCCc1nc(C)c(CC(=O)N2CCN(C(C)=O)CC2)c(=O)n1Cc1ccc(-c2ccccc2-c2nn[nH]n2)cc1 [Compound 77, 2-n-butyl-5-(4'-acetylpiperazinocarbonylmethyl)-6-methyl-3-[[2'-(1H-tetrazol-5-yl)biphenyl-4-yl]methyl]-pyrimidin-4-(3H)-one]
30.7 | CCOC(=O)CCc1c(C)nc(CC)n(Cc2ccc(-c3ccccc3-c3nnn[nH]3)cc2)c1=O [Compound 5, 2-ethyl-5-(2'-ethoxycarbonylethyl)-6-methyl-3-[[2'-(1H-tetrazol-5-yl)biphenyl-4-yl]methyl]-pyrimidin-4-(3H)-one]
30.8 | CCCCc1nc(C)c(CCC(=O)N(CC)CC)c(=O)n1Cc1ccc(-c2ccccc2-c2nnn[nH]2)cc1 [Compound 27, 2-n-butyl-5-(2'-diethylaminocarbonylethyl)-6-methyl-3-[[2'-(1H-tetrazol-5-yl)biphenyl-4-yl]methyl]-pyrimidin-4-(3H )-one]
3.36 | CCCCc1nc(C)c(CCC(=O)N2CCC[C@H]2C(=O)OC)c(=O)n1Cc1ccc(-c2ccccc2-c2nn[nH]n2)cc1 [Compound 59, 2-n-butyl-5-[2'-((S)-2"-methoxycarbonylpyrrolidino)-carbonylethyl]-6-methyl-3-[[2'-(1H-tetrazol-5-yl)biphenyl-4-yl]-methyl]-pyrimidin-4-(3H)-one]
19.4 | CCCc1nc(=O)c(CCC(=O)O)c(C)n1Cc1ccc(-c2ccccc2-c2nn[nH]n2)cc1 [Compound 15, 2-n-propyl-5-(2'-carboxyethyl)-6-methyl-1-[[2'-(1H-tetrazol-5-yl)-biphenyl-4-yl]methyl]-pyrimidin-4-(1H)-one]
2.37 | CCCCc1nc(C)c(CC(=O)N(C)C)c(=O)n1Cc1ccc(-c2ccccc2-c2nnn[nH]2)cc1 [Compound 22, 2-n-butyl-5-dimethylaminocarbonylmethyl-6-methyl-3-[[2'-(1H-tetrazol-5-yl)biphenyl-4-yl]methyl]-pyrimidin-4-(3H)-one]
11.6 | CCCCc1nc(C)c(CCC(=O)N2CCCCCC2)c(=O)n1Cc1ccc(-c2ccccc2-c2nn[nH]n2)cc1 [Compound 70, 2-n-butyl-5-(2'-hexamethyleneiminocarbonylethyl)-6-methyl-3-[[2'-(1H-tetrazol-5-yl)biphenyl-4-yl]methyl]-pyrimidin-4-(3H)-one]
22.7 | CCc1nc(C)c(CCC(=O)O)c(=O)n1Cc1ccc(-c2ccccc2-c2nnn[nH]2)cc1 [Compound 6, 2-ethyl-5-(2'-carboxyethyl)-6-methyl-3-[[2'-(1H-tetrazol-5-yl)-biphenyl-4-yl]methyl]-pyrimidin-4-(3H)-one]
13.1 | CCCCc1nc(C)c(CCC(=O)N2C(C)COCC2C)c(=O)n1Cc1ccc(-c2ccccc2-c2nn[nH]n2)cc1 (centres unmarked) [Compound 79, 2-n-butyl-5-[2'-(3",5"-dimethylmorpholino)carbonylethyl]-6-methyl-3-[[2'-(1H-tetrazol-5-yl)biphenyl-4-yl]methyl]-pyrimidin-4-(3H)-one]
4.99 | CCCc1nc(C)c(CCC(=O)OCC)c(=O)n1Cc1ccc(-c2ccccc2-c2nn[nH]n2)cc1 [Compound 13, 2-n-propyl-5-(2'-ethoxycarbonylethyl)-6-methyl-3-[[2'-(1H-tetrazol-5-yl)biphenyl-4-yl]methyl]-pyrimidin-4-(3H)-one]
9.62 | CCCCc1nc(C)c(CCC(=O)N2CCCCC2)c(=O)n1Cc1ccc(-c2ccccc2-c2nn[nH]n2)cc1 [Compound 62, 2-n-butyl-5-[2'-piperidinocarbonylethyl]-6-methyl-3-[[2'-(1H-tetrazol-5-yl)biphenyl-4-yl]methyl]-pyrimidin-4-(3H)-one]
2.08 | CCCCc1nc(C)c(CC(=O)N2CCC[C@H]2C(N)=O)c(=O)n1Cc1ccc(-c2ccccc2-c2nn[nH]n2)cc1 [Compound 43, 2-n-butyl-5-[(S)-2'-aminocarbonylpyrrolidinocarbonylmethyl]-6-methyl-3-[[2'-(1H-tetrazol-5-yl)biphenyl-4-yl]methyl]-pyrimidin-4-(3H)-one]
1.75 | CCCCc1nc(C)c(CC(=O)N2CCOCC2)c(=O)n1Cc1ccc(-c2ccccc2-c2nn[nH]n2)cc1 [Compound 73, 2-n-butyl-5-morpholinocarbonylmethyl-6-methyl-3-[[2'-(1H-tetrazol-5-yl)biphenyl-4-yl]methyl]-pyrimidin-4-(3H)-one]
9.05 | CCOC(=O)Cc1c(C)nc(CC)n(Cc2ccc(-c3ccccc3-c3nnn[nH]3)cc2)c1=O [Compound 1, 2-ethyl-5-ethoxycarbonylmethyl-6-methyl-3-[[2'-(1H-tetrazol-5-yl)biphenyl-4-yl]methyl]-pyrimidin-4-(3H)-one]
3.5 | CCCCc1nc(C)c(CCC(=O)OCC)c(=O)n1Cc1ccc(-c2ccccc2-c2nnn[nH]2)cc1 [Compound 23, 2-n-butyl-5-(2'-ethoxycarbonylethyl) -6-methyl-3-[[2'-(1H-tetrazol-5-yl)biphenyl-4-yl]methyl]-pyrimidin-4-(3H)-one]
1.03 | CCCCc1nc(C)c(CC(=O)N2C(C)COCC2C)c(=O)n1Cc1ccc(-c2ccccc2-c2nn[nH]n2)cc1 (centres unmarked) [Compound 74, 2-n-butyl-5-(3',5'-dimethylmorpholinocarbonylmethyl)-6-methyl-3-[[2'-(1H-tetrazol-5-yl)biphenyl-4-yl]methyl]-pyrimidin-4-(3H)-one]
22.3 | CCc1nc(=O)c(CC(=O)O)c(C)n1Cc1ccc(-c2ccccc2-c2nnn[nH]2)cc1 [Compound 3, 2-ethyl-5-carboxymethyl-6-methyl-1-[[2'-(1H-tetrazol-5-yl)-biphenyl-4-yl]methyl]-pyrimidin-4-(1H)-one]
2.63 | CCCCc1nc(C)c(CC(=O)N(CC)CC)c(=O)n1Cc1ccc(-c2ccccc2-c2nnn[nH]2)cc1 [Compound 21, 2-n-butyl-5-diethylaminocarbonylmethyl-6-methyl-3-[[2'-(1H-tetrazol-5-yl)biphenyl-4-yl]methyl]-pyrimidin-4-(3H)-one]
6.24 | CCCCc1nc(C)c(CC(=O)N2CCCCC2C(=O)OCC)c(=O)n1Cc1ccc(-c2ccccc2-c2nn[nH]n2)cc1 (centres unmarked) [Compound 53, 2-n-butyl-5-(2'-ethoxycarbonylpiperidinocarbonylmethyl)-6-methyl-3-[[2'-(1H-tetrazol-5-yl)biphenyl-4-yl]methyl]-pyrimidin-4-(3H)-one]
2.2 | CCCCc1nc(C)c(CC(=O)N2CCC(C(N)=O)CC2)c(=O)n1Cc1ccc(-c2ccccc2-c2nn[nH]n2)cc1 [Compound 54, 2-n-butyl-5-(4'-aminocarbonylpiperidinocarbonylmethyl)-6-methyl-3-[[2'-(1H-tetrazol-5-yl)biphenyl-4-yl]methyl]-pyrimidin-4-(3H)-one]
10.7 | CCCCc1nc(C)c(CCC(=O)N2CCCC(C(=O)N(CC)CC)C2)c(=O)n1Cc1ccc(-c2ccccc2-c2nn[nH]n2)cc1 (centres unmarked) [Compound 69, 2-n-butyl-5-[2'-(3"-diethylaminocarbonylpiperidino)carbonylethyl]-6-methyl-3-[[2'-(1H-tetrazol-5-yl)biphenyl-4-yl]methyl]-pyrimidin-4-(3H)-one]
151 | CCCCc1nc(C)c(CCC(=O)N2CCN(C/C=C/c3ccccc3)CC2)c(=O)n1Cc1ccc(-c2ccccc2-c2nn[nH]n2)cc1 [Compound 83, 2-n-butyl-5-[2'-(4"-trans-cinnamylpiperazino)carbonylethyl]-6-methyl-3-[[2'-(1H-tetrazol-5-yl)biphenyl-4-yl]methyl]-pyrimidin-4-(3H)-one]
128 | CCCCc1nc(C)c(CC(=O)N2CCC(Cc3ccccc3)CC2)c(=O)n1Cc1ccc(-c2ccccc2-c2nn[nH]n2)cc1 [Compound 47, 2-n-butyl-5-(4'-benzylpiperidinocarbonylmethyl)-6-methyl-3-[[2'-(1H-tetrazol-5-yl)biphenyl-4-yl]methyl]-pyrimidin-4-(3H) -one]
2.84 | CCc1nc(=O)c(CCC(=O)O)c(C)n1Cc1ccc(-c2ccccc2-c2nnn[nH]2)cc1 [Compound 7, 2-ethyl-5-(2'-carboxyethyl)-6-methyl-1-[[2'-(1H-tetrazol-5-yl)-biphenyl-4-yl]methyl]-pyrimidin-4-(1H)-one]
2.95 | CCCCc1nc(C)c(CCCC(=O)N(CC)CC)c(=O)n1Cc1ccc(-c2ccccc2-c2nn[nH]n2)cc1 [Compound 32, 2-n-butyl-5-(3'-diethylaminocarbonylpropyl)-6-methyl-3-[[2'-(1H-tetrazol-5-yl)biphenyl-4-yl]methyl]-pyrimidin-4-(3H )-one]

Same assay, conditions: test compound incubated 20 minutes, value given in M, read-out: IC50 (concentration being required to inhibit angiotensin II induced contraction by 50%)

IC50 [nM] | Structure (SMILES)
> 10000 | CCCCc1nc(C)c(CC(=O)N2CCC(C)CC2)c(=O)n1Cc1ccc(-c2ccccc2-c2nn[nH]n2)cc1 [Compound 48, 2-n-butyl-5-(4'-methylpiperidinocarbonylmethyl)-6-methyl-3-[[2'-(1H-tetrazol-5-yl)biphenyl-4-yl]methyl]-pyrimidin-4-(3H)-one]

Source: patent US5869476A, “Pyrimidinone derivatives” (Boryung Pharmaceutical Co., Ltd., priority 1994, dated 1999)
